Assay results published in ChEMBL document CHEMBL1201862, “PubChem BioAssay data set” (2004).
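In this assay, cells in 96-well plates receive the compound at five concentrations for 48 hours. Endpoints are linearly interpolated between the surrounding concentrations. GI50: concentration for 50% inhibition of growth.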 Active and inactive are the calls of the source. Rule as the data show it: active = GI50 up to about 1.1 µM and inactive = higher.

Legend:
Assay in all cases: growth of human tumour cells (NCI), 48 h
[1] = tested on: ACHN
[2] = tested on: COLO 205
[3] = tested on: HT-29
[4] = tested on: NCI-H226
[5] = tested on: NCI-H460
[6] = tested on: NCI-H522
[7] = tested on: OVCAR-5
[8] = tested on: OVCAR-8
[9] = tested on: RXF 393
[10] = tested on: SF-268
[11] = tested on: SF-539
[12] = tested on: SK-MEL-5
[13] = tested on: TK-10
[14] = tested on: UACC-257
[15] = tested on: UACC-62
[16] = tested on: MCF7
[17] = tested on: NCI/ADR-RES
[18] = tested on: PC-3

Row | SMILES | GI50 [1] | GI50 [2] | GI50 [3] | GI50 [4] | GI50 [5] | GI50 [6] | GI50 [7] | GI50 [8] | GI50 [9] | GI50 [10] | GI50 [11] | GI50 [12] | GI50 [13] | GI50 [14] | GI50 [15] | GI50 [16] | GI50 [17] | GI50 [18]
1 | CCOC(=O)C1(Br)S(=O)(=O)OCCOS1(=O)=O | > 100 µM (inactive) | > 100 µM (inactive) | > 100 µM (inactive) | > 100 µM (inactive) | > 100 µM (inactive) | > 100 µM (inactive) | > 100 µM (inactive) | > 100 µM (inactive) | > 100 µM (inactive) | > 100 µM (inactive) | > 100 µM (inactive) | > 100 µM (inactive) | > 100 µM (inactive) | > 100 µM (inactive) | > 100 µM (inactive) | – | – | –
2 | C/C(=N/NS(=O)(=O)c1c(C)cc(C)cc1C)c1cccc[n+]1[O-] | > 100 µM (inactive) | – | > 100 µM (inactive) | – | > 100 µM (inactive) | 83.4 µM (inactive) | > 100 µM (inactive) | > 100 µM (inactive) | – | > 100 µM (inactive) | > 100 µM (inactive) | > 100 µM (inactive) | > 100 µM (inactive) | > 100 µM (inactive) | > 100 µM (inactive) | – | – | –
3 | CCOC(=O)C1=C(Nc2ccc(Cl)cc2Cl)OCC1=O | > 100 µM (inactive) | > 100 µM (inactive) | > 100 µM (inactive) | > 100 µM (inactive) | > 100 µM (inactive) | > 100 µM (inactive) | > 100 µM (inactive) | > 100 µM (inactive) | – | > 100 µM (inactive) | > 100 µM (inactive) | – | > 100 µM (inactive) | > 100 µM (inactive) | > 100 µM (inactive) | – | – | –
4 | CC1CCCC2(O1)OC1CC(=O)OC1C1=C2C(=O)c2ccccc2C1=O (stereo unspecified) | 4.39 µM (inactive) | 2.02 µM (inactive) | 2.42 µM (inactive) | 1.3 µM (inactive) | 25.9 µM (inactive) | 1.6 µM (inactive) | 19.9 µM (inactive) | 2.51 µM (inactive) | 2.13 µM (inactive) | 4.02 µM (inactive) | 5.81 µM (inactive) | 2.06 µM (inactive) | 9.12 µM (inactive) | 1.81 µM (inactive) | 2.25 µM (inactive) | – | – | –
5 | C/C=C/C(=O)[C@@H](O)C(C)C | > 100 µM (inactive) | > 100 µM (inactive) | > 100 µM (inactive) | > 100 µM (inactive) | – | > 100 µM (inactive) | > 100 µM (inactive) | > 100 µM (inactive) | > 100 µM (inactive) | > 100 µM (inactive) | – | > 100 µM (inactive) | > 100 µM (inactive) | > 100 µM (inactive) | > 100 µM (inactive) | – | – | –
6 | O=C1C(c2ccccc2)=C(c2ccccc2)C(c2ccccc2)/C1=C1\C(=O)C(c2ccccc2)=C(c2ccccc2)C1c1ccccc1 (stereo unspecified) | > 100 µM (inactive) | > 100 µM (inactive) | > 100 µM (inactive) | > 100 µM (inactive) | > 100 µM (inactive) | > 100 µM (inactive) | > 100 µM (inactive) | > 100 µM (inactive) | > 100 µM (inactive) | > 100 µM (inactive) | > 100 µM (inactive) | > 100 µM (inactive) | > 100 µM (inactive) | > 100 µM (inactive) | > 100 µM (inactive) | – | – | –
7 | Clc1cccc(N2CCN(CCCN3CCc4c([nH]c5ccccc45)C3c3cccnc3)CC2)c1 (stereo unspecified) | 12.4 µM (inactive) | 2.88 µM (inactive) | 3.89 µM (inactive) | 18.1 µM (inactive) | 6.22 µM (inactive) | 11.8 µM (inactive) | 7.66 µM (inactive) | 10.8 µM (inactive) | 1.58 µM (inactive) | – | 3.61 µM (inactive) | 5.32 µM (inactive) | > 10 µM (inactive) | 4.34 µM (inactive) | > 10 µM (inactive) | – | – | –
8 | CC(C)(C)C1C=C(Sc2ccccc2)C(=O)O1 (stereo unspecified) | 32.1 µM (inactive) | 26.9 µM (inactive) | 49.8 µM (inactive) | 54.7 µM (inactive) | 40.4 µM (inactive) | 32.7 µM (inactive) | 34.2 µM (inactive) | 37.3 µM (inactive) | – | 37.2 µM (inactive) | 44.1 µM (inactive) | – | 60.5 µM (inactive) | 31.8 µM (inactive) | 36.7 µM (inactive) | – | – | –
9 | CCOC(=O)C1=C(O)C(=O)c2ccccc2C1=O | > 100 µM (inactive) | > 100 µM (inactive) | > 100 µM (inactive) | 48.3 µM (inactive) | > 100 µM (inactive) | > 100 µM (inactive) | > 100 µM (inactive) | > 100 µM (inactive) | > 100 µM (inactive) | > 100 µM (inactive) | > 100 µM (inactive) | 46.5 µM (inactive) | > 100 µM (inactive) | > 100 µM (inactive) | 48 µM (inactive) | – | – | –
10 | Cc1cccc(C)c1N1C(=O)C(=O)C(c2nc3ccccc3s2)/C(=N/NC(=O)c2ccccc2O)C1=O (stereo unspecified) | 6.65 µM (inactive) | 27.4 µM (inactive) | 51.5 µM (inactive) | 13.7 µM (inactive) | 17.7 µM (inactive) | 8.77 µM (inactive) | 36.9 µM (inactive) | 21 µM (inactive) | 3.09 µM (inactive) | 6.75 µM (inactive) | 6.87 µM (inactive) | 16.2 µM (inactive) | 25.1 µM (inactive) | 23.3 µM (inactive) | 2.08 µM (inactive) | – | – | –
11 | O=C(O)C12CC3CC(CC(F)(C3)C1)C2 | > 100 µM (inactive) | > 100 µM (inactive) | > 100 µM (inactive) | – | > 100 µM (inactive) | > 100 µM (inactive) | > 100 µM (inactive) | > 100 µM (inactive) | > 100 µM (inactive) | – | > 100 µM (inactive) | > 100 µM (inactive) | > 100 µM (inactive) | > 100 µM (inactive) | > 100 µM (inactive) | – | – | –
12 | C[C@]12CCC(=O)C(O)=C1CCC2=O | > 100 µM (inactive) | > 100 µM (inactive) | > 100 µM (inactive) | > 100 µM (inactive) | > 100 µM (inactive) | > 100 µM (inactive) | > 100 µM (inactive) | > 100 µM (inactive) | > 100 µM (inactive) | > 100 µM (inactive) | > 100 µM (inactive) | > 100 µM (inactive) | > 100 µM (inactive) | > 100 µM (inactive) | > 100 µM (inactive) | – | – | –
13 | COc1cccc2c1C(=O)c1c(O)c3c(c(O)c1C2=O)C[C@@](O)(C(=O)CN1CCOCC1)C[C@@H]3OC1CC(N)C(O)C(C)O1 (stereo partly specified) | – | 5.94 µM (inactive) | 0.000764 µM (active) | 1.85 µM (inactive) | 0.446 µM (active) | 2.82 µM (inactive) | 12.4 µM (inactive) | 4.47 µM (inactive) | 6.41 µM (inactive) | 4.47 µM (inactive) | 4.09 µM (inactive) | 3.11 µM (inactive) | – | 0.000769 µM (active) | 3.58 µM (inactive) | 0.938 µM (active) | 5.52 µM (inactive) | –
14 | CC1=NCCc2cc3[nH]c4ccccc4c3cc21 | – | 9.91 µM (inactive) | 14.8 µM (inactive) | 15.2 µM (inactive) | 13.3 µM (inactive) | 21.3 µM (inactive) | 16.6 µM (inactive) | 24.6 µM (inactive) | 6.4 µM (inactive) | 22.1 µM (inactive) | 12.6 µM (inactive) | 11.8 µM (inactive) | – | 10.3 µM (inactive) | 14.3 µM (inactive) | 15.1 µM (inactive) | 23.7 µM (inactive) | –
15 | Clc1ccc(-c2c(C3=NCCCN3)nnn2-c2ccccc2)cc1 | > 100 µM (inactive) | 34.9 µM (inactive) | 40.1 µM (inactive) | > 100 µM (inactive) | 33.6 µM (inactive) | > 100 µM (inactive) | 67 µM (inactive) | > 100 µM (inactive) | > 100 µM (inactive) | > 100 µM (inactive) | > 100 µM (inactive) | > 100 µM (inactive) | > 100 µM (inactive) | > 100 µM (inactive) | > 100 µM (inactive) | – | – | –
16 | COc1ccccc1NC(=O)C1=C(C)NC(C)=C(C(=O)Nc2ccccc2OC)C1c1ccccc1Cl | 55.7 µM (inactive) | > 100 µM (inactive) | 64.1 µM (inactive) | > 100 µM (inactive) | 59.3 µM (inactive) | – | > 100 µM (inactive) | > 100 µM (inactive) | – | > 100 µM (inactive) | 26.1 µM (inactive) | 47.8 µM (inactive) | > 100 µM (inactive) | > 100 µM (inactive) | > 100 µM (inactive) | – | – | –
17 | C=C1C(=O)[C@@]23CC[C@H]4[C@@](C)(CCC[C@@]4(C)C(=O)OC)[C@@H]2CC[C@]1(O)C3 | – | 1.72 µM (inactive) | 1.27 µM (inactive) | 3.3 µM (inactive) | 3.58 µM (inactive) | 1.54 µM (inactive) | 2.02 µM (inactive) | 1.47 µM (inactive) | – | 1.9 µM (inactive) | 1.76 µM (inactive) | 1.93 µM (inactive) | – | 1.72 µM (inactive) | 1.6 µM (inactive) | 2.12 µM (inactive) | 1.37 µM (inactive) | –
18 | C/N=c1/ss/c(=N\C(SC)=[N+](C)C)n1C.[O-][Cl+3]([O-])([O-])[O-] | > 100 µM (inactive) | – | 4.98 µM (inactive) | > 100 µM (inactive) | 4.09 µM (inactive) | 14.8 µM (inactive) | > 100 µM (inactive) | > 100 µM (inactive) | > 100 µM (inactive) | > 100 µM (inactive) | – | 0.419 µM (active) | > 100 µM (inactive) | > 100 µM (inactive) | 3.99 µM (inactive) | – | – | –
19 | Nc1nc(N)c2cc(S(=O)(=O)c3ccc4ccccc4c3)ccc2n1 | 2.74 µM (inactive) | – | – | – | 0.573 µM (active) | 3.9 µM (inactive) | > 100 µM (inactive) | 1.34 µM (inactive) | – | 5.22 µM (inactive) | 3.33 µM (inactive) | 11.9 µM (inactive) | > 100 µM (inactive) | 0.142 µM (active) | 2.57 µM (inactive) | – | 70.5 µM (inactive) | 1.58 µM (inactive)
